Experimental data published in PubChem BioAssay (NCI).
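Following 48 hours of exposure in 96-well plates, responses at five concentrations were used to interpolate endpoints linearly. TGI: concentration producing complete growth inhibition.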

Legend:
Test in all cases: growth of human tumour cells (NCI), 48 h
[1] = system: PC-3 prostate
[2] = system: CCRF-CEM leukemia
[3] = system: RPMI-8226 leukemia
[4] = system: SK-MEL-28 melanoma
[5] = system: A549 NSCLC
[6] = system: LOX IMVI melanoma
[7] = system: NCI-H460 lung
[8] = system: T-47D breast
[9] = system: SF-295 CNS
[10] = system: SR leukemia
[11] = system: OVCAR-4 ovarian
[12] = system: HCT-15 colon
[13] = system: IGROV1 ovarian

Compound | TGI [1] [µM] | TGI [2] [µM] | TGI [3] [µM] | TGI [4] [µM] | TGI [5] [µM] | TGI [6] [µM] | TGI [7] [µM] | TGI [8] [µM] | TGI [9] [µM] | TGI [10] [µM] | TGI [11] [µM] | TGI [12] [µM] | TGI [13] [µM]
O=[N+]([O-])c1cc(F)ccc1S(=O)(=O)c1ccccc1 | > 10 | > 10 | > 10 | > 10 | > 10 | > 10 | > 10 | > 10 | > 10 | > 10 | > 10 | > 10 | > 10
Cc1cc2n[n+]3[n-]cc(-c4ccccc4)n3c2cc1[N+](=O)[O-] | > 100 | > 100 | > 100 | > 100 | > 100 | > 100 | > 100 | > 100 | > 100 | > 100 | > 100 | > 100 | > 100
O=c1[nH]c2nccn2c2c1SCCN2 | > 100 | > 100 | > 100 | > 100 | > 100 | > 100 | > 100 | > 100 | > 100 | > 100 | > 100 | > 100 | > 100
COc1ccc2c(c1)NC1(CCN(CCCC(=O)c3ccc(F)cc3)CC1)N=N2 | > 100 | 58.5 | 42.2 | 37 | > 100 | 35.3 | 93.5 | 53.5 | 46.3 | 35.4 | > 100 | 52.4 | 64
COC(=O)C1=C(O)CCCC(C2CCCCC(=O)C2C(=O)OC)=C1 (stereo unspecified) | > 100 | 89.3 | > 100 | > 100 | > 100 | > 100 | 39.6 | > 100 | > 100 | > 100 | > 100 | > 100 | > 100
O=C1CSC(c2ccc([N+](=O)[O-])cc2)N1c1ccc(-c2ccc(-n3c(-c4ccccc4)nc4ccccc4c3=O)cc2)cc1 (stereo unspecified) | > 100 | > 100 | > 100 | > 100 | > 100 | > 100 | > 100 | > 100 | > 100 | 87 | > 100 | > 100 | 
CCN(CC)CC1CN=C(N)O1 (stereo unspecified) | > 100 | > 100 | > 100 | > 100 | > 100 | > 100 | > 100 | > 100 | > 100 | > 100 | > 100 | > 100 | > 100
COC(=O)c1c2c(cc3c1CC1(Cc4cc5c(c(C(C)=O)c4C1)CCCC5)C3)CCCC2 (stereo unspecified) | > 100 | 88.1 | 87.5 |  | > 100 | > 100 |  | > 100 | > 100 | 21 | > 100 | > 100 | > 100
